The values below come from patent US12324802B2, “Modulators of cystic fibrosis transmembrane conductance regulator” (Vertex Pharmaceuticals Incorporated, priority 2020, dated 2025).

Tested on in the first data set: not given
Assay: not given
As to conditions: from C=CCCC(Nc1nc(-c2nnc([C@@](CC=C)(OCc3ccccc3)C(F)(F)F)o2)c([N+](=O)[O-])cc1C(F)(F)F)C1CC1; rcm bond; 14-membered ring; Zhan catalyst-1B; DCE; 2.49 mM; 66.0 °C; 1.6 h.
`O=[N+]([O-])c1cc(C(F)(F)F)c2nc1-c1nnc(o1)[C@@](OCc1ccccc1)(C(F)(F)F)CC=CCCC(C1CC1)N2` (stereo partly shown) displayed a ring closure, isolated yield of 76%.

The next data set deals with T1, CFTR (F508del/MF-HBE cells) (Homo sapiens, UniProt P13569, DEL508-508).
T1 construct: human bronchial epithelial (HBE) cells derived from CF subjects heterozygous for F508del and a minimal function CFTR mutation; endogenous in cells; host or cells: primary human bronchial epithelial cells from CF subjects (F508del/MF genotype)
T1 sequence (P13569 with tags, fused parts or gaps DEL508-508): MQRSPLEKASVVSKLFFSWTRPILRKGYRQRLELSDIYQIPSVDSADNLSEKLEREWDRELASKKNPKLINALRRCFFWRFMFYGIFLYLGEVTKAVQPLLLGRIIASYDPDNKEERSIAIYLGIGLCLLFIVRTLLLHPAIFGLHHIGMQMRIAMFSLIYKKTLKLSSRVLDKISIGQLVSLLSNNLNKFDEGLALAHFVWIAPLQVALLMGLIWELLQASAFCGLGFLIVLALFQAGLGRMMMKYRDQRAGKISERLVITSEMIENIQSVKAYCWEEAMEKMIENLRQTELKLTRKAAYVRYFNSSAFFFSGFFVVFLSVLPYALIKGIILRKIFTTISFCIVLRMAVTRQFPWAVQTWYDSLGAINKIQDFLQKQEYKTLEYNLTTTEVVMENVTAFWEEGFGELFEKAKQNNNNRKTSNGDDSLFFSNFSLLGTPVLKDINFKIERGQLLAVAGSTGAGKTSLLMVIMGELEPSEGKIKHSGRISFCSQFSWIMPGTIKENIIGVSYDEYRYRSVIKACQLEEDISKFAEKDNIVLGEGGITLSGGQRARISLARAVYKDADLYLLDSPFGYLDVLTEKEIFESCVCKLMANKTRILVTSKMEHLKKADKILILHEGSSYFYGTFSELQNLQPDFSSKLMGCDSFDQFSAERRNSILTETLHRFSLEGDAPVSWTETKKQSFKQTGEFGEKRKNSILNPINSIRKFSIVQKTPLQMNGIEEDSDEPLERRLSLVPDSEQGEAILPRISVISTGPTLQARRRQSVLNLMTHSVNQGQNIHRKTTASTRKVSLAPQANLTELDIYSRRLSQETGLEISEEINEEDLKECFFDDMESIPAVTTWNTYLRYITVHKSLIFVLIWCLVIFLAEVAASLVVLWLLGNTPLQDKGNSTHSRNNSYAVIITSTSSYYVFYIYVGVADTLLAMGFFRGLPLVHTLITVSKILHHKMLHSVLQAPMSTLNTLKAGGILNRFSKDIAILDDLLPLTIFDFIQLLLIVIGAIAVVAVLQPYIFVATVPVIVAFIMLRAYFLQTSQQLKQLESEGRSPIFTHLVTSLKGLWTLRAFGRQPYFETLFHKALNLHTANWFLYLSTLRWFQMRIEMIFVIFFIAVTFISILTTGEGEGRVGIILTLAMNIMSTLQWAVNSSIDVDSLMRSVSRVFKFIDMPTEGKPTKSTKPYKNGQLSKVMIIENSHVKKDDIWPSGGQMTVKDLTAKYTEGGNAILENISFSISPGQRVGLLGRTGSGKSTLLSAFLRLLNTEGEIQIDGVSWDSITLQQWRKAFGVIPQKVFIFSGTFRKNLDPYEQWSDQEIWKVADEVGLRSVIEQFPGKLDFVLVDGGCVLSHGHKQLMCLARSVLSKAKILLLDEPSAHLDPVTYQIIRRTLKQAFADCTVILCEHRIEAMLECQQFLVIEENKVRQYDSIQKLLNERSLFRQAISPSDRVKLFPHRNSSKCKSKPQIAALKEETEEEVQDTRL
Description: Ussing chamber assay of CFTR-mediated short-circuit currents (identification of potentiator compounds). It is filed as cell-based. As to conditions: CFTR-mediated ISC in F508del/MF-HBE cells; incubated 18-24 hours at 37° C. with 10 μM (14S)-8-[3-(2-{dispiro[2.0.2.1]heptan-7-yl}ethoxy)-1H-pyrazol-1-yl]-...-2,2,4-trione, 20% human serum. The gist of the method: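 F508del/minimal-function HBE cultures grown at air-liquid interface were incubated for 18–24 h at 37 °C with potentiator plus 10 μM corrector, in 20% human serum, and compounds stayed present during recording. Transepithelial ISC was recorded at 0 mV and 37 °C with 30 μM apical amiloride. CFTR current was taken as the peak response to 20 μM forskolin minus the steady state after a 20 μM inhibitor cocktail.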
For `Nc1cc(C(F)(F)F)c2nc1-c1nnc(o1)C(O)(C(F)(F)F)CCCCC1CCCN21` (stereo not shown) [Compound 18, 19-amino-6,17-bis(trifluoromethyl)-21-oxa-3,4,15,20-tetraazatetracyclo[14.3.1.12,5.011,15]henicosa-1(20),2,4,16,18-pentaen-6-ol], the EC50 is under 500 nM. `Nc1cc(C(F)(F)F)c2nc1-c1nnc(o1)C(=NO)CCCCC[C@@H]1CCCN21` [Compound 31, (12R)-6-(hydroxyimino)-18-(trifluoromethyl)-22-oxa-3,4,16,21-tetraazatetracyclo[15.3.1.12,5.012,16]docosa-1(21),2,4,17,19-pentaen-20-amine]: the EC50 was under 500 nM. The same measure, in the same setting: for `Nc1cc(C(F)(F)F)c2nc1-c1nnc(o1)C(=O)CCCCC[C@@H]1CCCN21` [Compound 36, (12R)-20-amino-18-(trifluoromethyl)-22-oxa-3,4,16,21-tetraazatetracyclo[15.3.1.12,5.012,16]docosa-1(21),2,4,17,19-pentaen-6-one] the value was under 500 nM. In the case of `CN1CCCCCCC(=O)C2=NN=C(O2)c2nc1c(C(F)(F)F)cc2N` [Compound 58, 17-amino-13-methyl-15-(trifluoromethyl)-19-oxa-3,4,13,18-tetrazatricyclo[12.3.1.12,5]nonadeca-1(18),2,4,14,16-pentaen-6-one], the EC50 was under 500 nM. `Nc1cc(C(F)(F)F)c2nc1-c1nnc(o1)[C@](O)(C(F)(F)F)c1cc(ccc1F)CCC[C@@H]1CCCN21` [Compound 59, (6S,15R)-23-amino-8-fluoro-6,21-bis(trifluoromethyl)-26-oxa-3,4,19,24-tetraazapentacyclo[18.3.1.12,5.17,11.015,19]hexacosa-1(24),2,4,7(25),8,10,20,22-octaen-6-ol]: the concentration for a half-maximal effect (EC50) was under 500 nM. The same measure, in the same setting: for `Nc1cc(C(F)(F)F)c2nc1-c1nnc(o1)[C@@](O)(C(F)(F)F)c1cc(ccc1F)CCC[C@@H]1CCCN21` [Compound 60, (6R,15R)-23-amino-8-fluoro-6,21-bis(trifluoromethyl)-26-oxa-3,4,19,24-tetraazapentacyclo[18.3.1.12,5.17,11.015,19]hexacosa-1(24),2,4,7(25),8,10,20,22-octaen-6-ol] the value was under 500 nM; for `Nc1cc(C(F)(F)F)c2nc1-c1nnc(o1)-c1c(O)cccc1CCCC[C@@H]1CCCN21` [Compound 134, (16R)-24-amino-22-(trifluoromethyl)-26-oxa-3,4,20,25-tetraazapentacyclo[19.3.1.12,5.06,11.016,20]hexacosa-1(25),2,4,6(11),7,9,21,23-octaen-7-ol], over 1000 nM; for `CC1(C)CC2CCCc3ccc(F)c(c3)C(O)(C(F)(F)F)C3=NN=C(O3)c3nc(c(C(F)(F)F)cc3N)N2C1` (stereo not shown) [Compound 135, 23-amino-8-fluoro-17,17-dimethyl-6,21-bis(trifluoromethyl)-26-oxa-3,4,19,24-tetraazapentacyclo[18.3.1.12,5.17,11.015,19]hexacosa-1(24),2,4,7(25),8,10,20,22-octaen-6-ol], under 500 nM. For `CC1(C)CC2CCCc3ccc(F)c(c3)C(O)(C(F)(F)F)C3=NN=C(O3)c3nc(c(C(F)(F)F)cc3N)N2C1` (stereo not shown) [Compound 136, 23-amino-8-fluoro-17,17-dimethyl-6,21-bis(trifluoromethyl)-26-oxa-3,4,19,24-tetraazapentacyclo[18.3.1.12,5.17,11.015,19]hexacosa-1(24),2,4,7(25),8,10,20,22-octaen-6-ol], the EC50 is under 500 nM. `Nc1cc(Br)c2nc1-c1nnc(o1)C(O)(C(F)(F)F)CCCCC[C@@H]1CCCN21` (stereo partly drawn) [Compound 144, (12R)-20-amino-18-bromo-6-(trifluoromethyl)-22-oxa-3,4,16,21-tetraazatetracyclo[15.3.1.12,5.012,16]docosa-1(21),2,4,17,19-pentaen-6-ol]: the EC50 was under 500 nM. As for `Nc1cc(Sc2ccc(OC(F)(F)F)cc2)c2nc1-c1nnc(o1)C(O)(C(F)(F)F)CCCCC[C@@H]1CCCN21` (stereo partly drawn) [Compound 146, (12R)-20-amino-18-{[4-(trifluoromethoxy)phenyl]sulfanyl}-6-(trifluoromethyl)-22-oxa-3,4,16,21-tetraazatetracyclo[15.3.1.12,5.012,16]docosa-1(21),2,4,17,19-pentaen-6-ol], the EC50 is under 500 nM. As for `Nc1cc(C(F)(F)F)c2nc1-c1nnc(o1)C(O)(C(F)(F)F)CCCOC[C@@H]1CCCN21` (stereo partly drawn) [Compound 147, (12S)-20-amino-6,18-bis(trifluoromethyl)-10,22-dioxa-3,4,16,21-tetraazatetracyclo[15.3.1.12,5.012,16]docosa-1(21),2,4,17,19-pentaen-6-ol], the EC50 was under 500 nM.

As for `Nc1cc(C(F)(F)F)c2nc1-c1nnc(o1)[C@@](O)(C(F)(F)F)CCCCCC(C(=O)N1CCCC1)N2` (stereo partly drawn) [Compound 154, [(6R)-17-amino-6-hydroxy-6,15-bis(trifluoromethyl)-19-oxa-3,4,13,18-tetrazatricyclo[12.3.1.12,5]nonadeca-1(18),2,4,14,16-pentaen-12-yl]-pyrrolidin-1-yl-methanone], the EC50 is over 1000 nM. For `CC1(C)CCCCC[C@](O)(C(F)(F)F)C2=NN=C(O2)c2nc(c(C(F)(F)F)cc2N)N1` [Compound 163, (6R)-17-amino-12,12-dimethyl-6,15-bis(trifluoromethyl)-19-oxa-3,4,13,18-tetrazatricyclo[12.3.1.12,5]nonadeca-1(18),2,4,14,16-pentaen-6-ol], the 50% effective concentration (EC50) is under 500 nM. For the compound `CC1(C)CCCCC[C@@](O)(C(F)(F)F)C2=NN=C(O2)c2nc(c(C(F)(F)F)cc2N)N1` [Compound 165, (6S)-17-Amino-12,12-dimethyl-6,15-bis(trifluoromethyl)-19-oxa-3,4,13,18-tetrazatricyclo[12.3.1.12,5]nonadeca-1(18),2,4,14,16-pentaen-6-ol], the EC50 was over 1000 nM.

On to `Nc1cc(C(F)(F)F)c2nc1-c1nnc(o1)[C@@](O)(C(F)(F)F)CCCCCC(c1ccccn1)N2` (stereo partly drawn) [Compound 166, (6R)-17-amino-12-(2-pyridyl)-6,15-bis(trifluoromethyl)-19-oxa-3,4,13,18-tetrazatricyclo[12.3.1.12,5]nonadeca-1(18),2,4,14,16-pentaen-6-ol], for which the 50% effective concentration (EC50) is under 500 nM. Regarding `Nc1cc(C(F)(F)F)c2nc1-c1nnc(o1)[C@@](O)(C(F)(F)F)CCCCCC1(CCC1)N2` [Compound 173, (6R)-17-amino-6,15-bis(trifluoromethyl)spiro[19-oxa-3,4,13,18-tetrazatricyclo[12.3.1.12,5]nonadeca-1(18),2,4,14,16-pentaene-12,1′-cyclobutane]-6-ol], the EC50 was under 500 nM.

As to `[2H]C([2H])([2H])C1(C([2H])([2H])[2H])CCCCC[C@](O)(C(F)(F)F)C2=NN=C(O2)c2nc(c(C(F)(F)F)cc2N)N1` [Compound 176, (6R)-17-amino-12,12-bis(trideuteriomethyl)-6,15-bis(trifluoromethyl)-19-oxa-3,4,13,18-tetrazatricyclo[12.3.1.12,5]nonadeca-1(18),2,4,14,16-pentaen-6-ol], the EC50 was under 500 nM. As to `Nc1cc(C(F)(F)F)c2nc1-c1nnc(o1)[C@@](O)(C(F)(F)F)CCCCCC1(CCCC1)N2` [Compound 177, (6R)-17-amino-6,15-bis(trifluoromethyl)spiro[19-oxa-3,4,13,18-tetrazatricyclo[12.3.1.12,5]nonadeca-1(18),2,4,14,16-pentaene-12,1′-cyclopentane]-6-ol], the concentration for a half-maximal effect (EC50) is under 500 nM. For the compound `CC1(C)CNc2nc(c(N)cc2C(F)(F)F)C2=NN=C(O2)[C@@](O)(C(F)(F)F)CCCO1` [Compound 186, (6R)-17-amino-11,11-dimethyl-6,15-bis(trifluoromethyl)-10,19-dioxa-3,4,13,18-tetrazatricyclo[12.3.1.12,5]nonadeca-1(17),2,4,14(18),15-pentaen-6-ol], the EC50 is under 500 nM. Same read-out and setting: for `CC1(C)CCC[C@@H](O)C[C@](O)(C(F)(F)F)C2=NN=C(O2)c2nc(c(C(F)(F)F)cc2N)N1` [Compound 187, (6R,8R)-17-amino-12,12-dimethyl-6,15-bis(trifluoromethyl)-19-oxa-3,4,13,18-tetrazatricyclo[12.3.1.12,5]nonadeca-1(18),2,4,14,16-pentaene-6,8-diol] the value was under 500 nM; for `CC1(C)CCC[C@H](O)C[C@](O)(C(F)(F)F)C2=NN=C(O2)c2nc(c(C(F)(F)F)cc2N)N1` [Compound 188, (6R,8S)-17-amino-12,12-dimethyl-6,15-bis(trifluoromethyl)-19-oxa-3,4,13,18-tetrazatricyclo[12.3.1.12,5]nonadeca-1(18),2,4,14,16-pentaene-6,8-diol], under 500 nM; for `Nc1cc(C(F)(F)F)c2nc1-c1nnc(o1)[C@@](O)(C(F)(F)F)CCCCCC1(CCCCC1)N2` [Compound 193, (6R)-17-amino-6,15-bis(trifluoromethyl)spiro[19-oxa-3,4,13,18-tetrazatricyclo[12.3.1.12,5]nonadeca-1(18),2,4,14,16-pentaene-12,1′-cyclohexane]-6-ol], under 500 nM.

Consider `Nc1cc(C(F)(F)F)c2nc1-c1nnc(o1)[C@@](O)(C(F)(F)F)CCCCCC1(CCOCC1)N2` [Compound 205, (6R)-17-amino-6,15-bis(trifluoromethyl)spiro[19-oxa-3,4,13,18-tetrazatricyclo[12.3.1.12,5]nonadeca-1(18),2,4,14,16-pentaene-12,4′-tetrahydropyran]-6-ol], for which the EC50 was under 500 nM.
